pIC50: −log10 of the molar value.
Molecular target: Bromodomain-containing protein 4 (Homo sapiens, UniProt O60885)
Assay: His-tagged BRD4 was cloned, expressed and purified to homogeneity. […] BRD4 binding and inhibition was assessed by monitoring the interaction of biotinylated H4-tetraacetyl peptide (AnaSpec, H4K5/8/12/16(Ac), biotin-labeled) with the target using the AlphaScreen technology (Life Technologies). […] After 20 min incubation at room temp, Alpha streptavidin donor beads and Nickel Chelate acceptor beads were added to a final concentration of 5 μg/mL.

Q: How did the pIC50 turn out when `CCS(=O)(=O)Nc1ncc(Oc2ccc(F)cc2F)c(-c2cc(OC)c(=O)n(C)c2)n1` was run?
A: > 6.30

Q: `Cc1cc(-c2cn(CS(C)(=O)=O)c(=O)cc2Oc2ccc(F)cc2F)cn(CC2CC2)c1=O` was tested. Which pIC50 did it give?
A: > 6.30

Q: With `CCS(=O)(=O)c1ccc(OCC2CC2)c(-c2cn(C)c(=O)c3c2OCC(=O)N3)c1` as the compound, how does the pIC50 read?
A: > 6.30

Q: With `CCS(=O)(=O)c1ccc(NCC2CC2)c(-c2cc(Cl)c(=O)n(C)c2)c1` as the compound, how does the pIC50 read?
A: > 6.30

Q: `Cn1cc(-c2cc(S(C)(=O)=O)ccc2OCC2CC2)c2cc(C(F)(F)F)ccc2c1=O` was tested. Which pIC50 did it give?
A: > 6.30

Q: `CCCOc1ccc(S(C)(=O)=O)cc1-c1cn(C)c(=O)c2cnc(-c3cnn(C)c3)nc12` was tested. Which pIC50 did it give?
A: > 6.30

Q: With `Cc1c(-c2cc(NS(C)(=O)=O)ccc2Oc2ccc(F)cc2F)cn(C)c(=O)c1C` as the compound, how does the pIC50 read?
A: > 6.30

Q: With `Cc1cc(-c2cc(OCc3ccccc3Cl)cc(S(C)(=O)=O)c2)cn(C)c1=O` as the compound, how does the pIC50 read?
A: > 6.30

Source: ChEMBL document CHEMBL5725691, “Bromodomain inhibitors” (2018)
